Experimental findings from US20080118573A1, “Use of Heavy Metals in the Treatment of Biofilms” (priority 2004, published 2008) are described below.

Values after ≈ are worked out from the molar mass of the structure shown. Bounds are passed on as bounds.

One assay deals with Pseudomonas aeruginosa ATCC 27853 planktonic and biofilm bacteria. In kind it is cell-based. The settings on record: P. aeruginosa ATCC 27853; LB+B1; 24 h exposure.
The molecule `[Na+].[Na+].[O]=[Mo](=[O])([O-])[O-]` [MoO4^2−, sodium molybdate] returned an MIC greater than 102 mM.
`O=[Se](O)O` [SeO3^2−, selenous acid] yielded an MIC of 28 ± 8 mM (≈ 3610 µg/mL).
In the case of `O=[Te]([O-])[O-].[K+].[K+]` [TeO3^2−, potassium tellurite], the MIC is 0.73 ± 0 mM.
Molecule Sodium arsenite [AsO2^−] gave an MIC greater than 77 mM.
Same read-out and setting: in the case of Sodium hydrogen arsenate [AsO4^2−] it was greater than 59 mM; in that of `[Na+].[Na+].[O]=[W](=[O])([O-])[O-]` [WO4^2−, sodium tungstate], greater than 66 mM.
`[Cl][Cd][Cl]` [Cd^2+, Cadmium chloride]: the MIC is recorded as 4.6 ± 0 mM.
On the same count and under the same terms, in the case of `O=[Te](=O)([O-])[O-].[K+].[K+]` [TeO4^2−, potassium tellurate] it was greater than 1.3 mM; in that of `O=[N+]([O-])[O-].[Ag+]` [Ag^+, silver nitrate], 0.30 ± 0 mM.
On the same count and under the same terms, in the case of `[Cl][Sn][Cl]` [Sn^2+, stannous chloride] it was 17 ± 0 mM; in that of `O=S(=O)([O-])[O-].[Mn+2]` [Mn^2+, manganous sulfate], greater than 149 mM; in that of `[Cl][Hg][Cl]` [Hg^2+, mercuric chloride], 0.38 ± 0.14 mM.

The assay is the same for the next values; noted with them: P. aeruginosa ATCC 27853 biofilm; LB+B1; 24 h exposure.
With `[Na+].[Na+].[O]=[Mo](=[O])([O-])[O-]` [MoO4^2−, sodium molybdate], the MBEC is given as greater than 102 mM.
In the case of `O=[Se](O)O` [SeO3^2−, selenous acid], the MBEC stood at 28 ± 8 mM.
`O=[Te]([O-])[O-].[K+].[K+]` [TeO3^2−, potassium tellurite] had an MBEC of 4.4 ± 1.7 mM.
The same measure, in the same setting: the result for Sodium arsenite [AsO2^−] reads greater than 77 mM; that for Sodium hydrogen arsenate [AsO4^2−], greater than 59 mM; that for `[Na+].[Na+].[O]=[W](=[O])([O-])[O-]` [WO4^2−, sodium tungstate], greater than 66 mM.
Molecule `[Cl][Cd][Cl]` [Cd^2+, Cadmium chloride] came in with an MBEC of 36 ± 0 mM.
On the same count and under the same terms, the result for `O=[Te](=O)([O-])[O-].[K+].[K+]` [TeO4^2−, potassium tellurate] reads greater than 1.3 mM; that for `O=[N+]([O-])[O-].[Ag+]` [Ag^+, silver nitrate], 0.40 ± 0.17 mM; that for `[Cl][Sn][Cl]` [Sn^2+, stannous chloride], 17 ± 0 mM.
`O=S(=O)([O-])[O-].[Mn+2]` [Mn^2+, manganous sulfate] had an MBEC greater than 149 mM.
On the same count and under the same terms, the result for `[Cl][Hg][Cl]` [Hg^2+, mercuric chloride] reads 0.43 ± 0.16 mM.

Still in this assay, the particulars now being: P. aeruginosa ATCC 27853 planktonic; LB+B1; 24 h exposure.
`[Na+].[Na+].[O]=[Mo](=[O])([O-])[O-]` [MoO4^2−, sodium molybdate] returned an MBC greater than 102 mM.
As to `O=[Se](O)O` [SeO3^2−, selenous acid], the MBC was found to be 28 ± 8 mM (≈ 3610 µg/mL).
Consider `O=[Te]([O-])[O-].[K+].[K+]` [TeO3^2−, potassium tellurite], for which the MBC came out at 5.1 ± 0 mM.
Sodium arsenite [AsO2^−] gave an MBC greater than 77 mM.
On to Sodium hydrogen arsenate [AsO4^2−], for which the MBC is listed as greater than 59 mM.
`[Na+].[Na+].[O]=[W](=[O])([O-])[O-]` [WO4^2−, sodium tungstate] yielded an MBC greater than 66 mM.
On the same count and under the same terms, the result for `[Cl][Cd][Cl]` [Cd^2+, Cadmium chloride] reads 36 ± 0 mM; that for `O=[Te](=O)([O-])[O-].[K+].[K+]` [TeO4^2−, potassium tellurate], greater than 1.3 mM.
For `O=[N+]([O-])[O-].[Ag+]` [Ag^+, silver nitrate], the MBC amounted to 0.30 ± 0 mM.
`[Cl][Sn][Cl]` [Sn^2+, stannous chloride] displayed an MBC of 22 ± 9 mM.
The molecule `O=S(=O)([O-])[O-].[Mn+2]` [Mn^2+, manganous sulfate] showed an MBC greater than 149 mM.
Same read-out and setting: in the case of `[Cl][Hg][Cl]` [Hg^2+, mercuric chloride] it was 0.53 ± 0.39 mM.

A further assay deals with Escherichia coli JM109 planktonic and biofilm bacteria. It is filed as cell-based. The settings on record: E. coli JM109; LB+B1; 24 h exposure.
`[Na+].[Na+].[O]=[Mo](=[O])([O-])[O-]` [MoO4^2−, sodium molybdate] yielded an MIC greater than 102 mM.
Consider `O=[Se](O)O` [SeO3^2−, selenous acid], for which the MIC stood at 8.1 ± 0 mM (≈ 1040 µg/mL).
In turn, `O=[Te]([O-])[O-].[K+].[K+]` [TeO3^2−, potassium tellurite] yielded an MIC of 0.006 mM.
Same read-out and setting: in the case of Sodium arsenite [AsO2^−] it was 2.4 ± 0 mM; in that of Sodium hydrogen arsenate [AsO4^2−], 7.4 ± 0 mM.
`[Na+].[Na+].[O]=[W](=[O])([O-])[O-]` [WO4^2−, sodium tungstate] registered an MIC greater than 66 mM.
For the molecule `[Cl][Cd][Cl]` [Cd^2+, Cadmium chloride], the MIC stood at 1.1 ± 0 mM.
As for `O=[Te](=O)([O-])[O-].[K+].[K+]` [TeO4^2−, potassium tellurate], the MIC turned out to be 0.06 ± 0.02 mM.
`O=[N+]([O-])[O-].[Ag+]` [Ag^+, silver nitrate] showed an MIC of 0.06 ± 0.02 mM.
Still for that read-out and setting: the result for `O=S(=O)([O-])[O-].[Mn+2]` [Mn^2+, manganous sulfate] reads 37 ± 0 mM; that for `[Cl][Hg][Cl]` [Hg^2+, mercuric chloride], 0.07 ± 0.05 mM.

The same assay, now with this note: E. coli JM109 biofilm; LB+B1; 24 h exposure.
`[Na+].[Na+].[O]=[Mo](=[O])([O-])[O-]` [MoO4^2−, sodium molybdate] came in with an MBEC greater than 102 mM.
On the same count and under the same terms, the result for `O=[Se](O)O` [SeO3^2−, selenous acid] reads 8.1 ± 0 mM; that for `O=[Te]([O-])[O-].[K+].[K+]` [TeO3^2−, potassium tellurite], 0.014 mM.
As to Sodium arsenite [AsO2^−], the MBEC amounted to 77 ± 0 mM.
The molecule Sodium hydrogen arsenate [AsO4^2−] displayed an MBEC greater than 60 mM.
Same read-out and setting: the result for `[Na+].[Na+].[O]=[W](=[O])([O-])[O-]` [WO4^2−, sodium tungstate] reads greater than 66 mM.
On the same count and under the same terms, the result for `[Cl][Cd][Cl]` [Cd^2+, Cadmium chloride] reads 2.3 ± 0 mM; that for `O=[Te](=O)([O-])[O-].[K+].[K+]` [TeO4^2−, potassium tellurate], 0.42 ± 0.17 mM; that for `O=[N+]([O-])[O-].[Ag+]` [Ag^+, silver nitrate], 0.07 ± 0.02 mM.
For the molecule `[Cl][Sn][Cl]` [Sn^2+, stannous chloride], the MBEC was 17 ± 0 mM.
Regarding `O=S(=O)([O-])[O-].[Mn+2]` [Mn^2+, manganous sulfate], the MBEC was found to be 199 ± 86 mM.
On the same count and under the same terms, in the case of `[Cl][Hg][Cl]` [Hg^2+, mercuric chloride] it was 0.07 ± 0.05 mM.

Still in this assay, the particulars now being: E. coli JM109 planktonic; LB+B1; 24 h exposure.
Regarding `[Na+].[Na+].[O]=[Mo](=[O])([O-])[O-]` [MoO4^2−, sodium molybdate], the MBC was greater than 102 mM.
As for `O=[Se](O)O` [SeO3^2−, selenous acid], the MBC is 8.1 ± 0 mM (≈ 1040 µg/mL).
`O=[Te]([O-])[O-].[K+].[K+]` [TeO3^2−, potassium tellurite] gave an MBC of 0.016 mM.
For the molecule Sodium arsenite [AsO2^−], the MBC was determined as 77 ± 0 mM.
On to Sodium hydrogen arsenate [AsO4^2−], for which the MBC is greater than 60 mM.
The same measure, in the same setting: the result for `[Na+].[Na+].[O]=[W](=[O])([O-])[O-]` [WO4^2−, sodium tungstate] reads greater than 66 mM.
As for `[Cl][Cd][Cl]` [Cd^2+, Cadmium chloride], the MBC is reported as 2.3 ± 0 mM.
`O=[Te](=O)([O-])[O-].[K+].[K+]` [TeO4^2−, potassium tellurate] returned an MBC of 0.42 ± 0.17 mM.
Molecule `O=[N+]([O-])[O-].[Ag+]` [Ag^+, silver nitrate] returned an MBC of 0.09 ± 0.04 mM.
The same measure, in the same setting: the result for `[Cl][Sn][Cl]` [Sn^2+, stannous chloride] reads 17 ± 0 mM; that for `O=S(=O)([O-])[O-].[Mn+2]` [Mn^2+, manganous sulfate], 199 ± 86 mM.
In turn, `[Cl][Hg][Cl]` [Hg^2+, mercuric chloride] showed an MBC of 0.07 ± 0.05 mM.

Another assay relates to Staphylococcus aureus ATCC 29213 planktonic and biofilm bacteria. In kind it is cell-based. To be noted: S. aureus ATCC 29213; LB+B1; 24 h exposure.
For `[Na+].[Na+].[O]=[Mo](=[O])([O-])[O-]` [MoO4^2−, sodium molybdate], the MIC is given as greater than 102 mM.
On the same count and under the same terms, the result for `O=[Se](O)O` [SeO3^2−, selenous acid] reads 16 ± 0 mM (≈ 2060 µg/mL).
On the same count and under the same terms, in the case of `O=[Te]([O-])[O-].[K+].[K+]` [TeO3^2−, potassium tellurite] it was 0.18 ± 0 mM.
Same read-out and setting: in the case of Sodium arsenite [AsO2^−] it was 9.6 ± 0 mM.
For the molecule Sodium hydrogen arsenate [AsO4^2−], the MIC was determined as 15 ± 0 mM.
Still for that read-out and setting: in the case of `[Na+].[Na+].[O]=[W](=[O])([O-])[O-]` [WO4^2−, sodium tungstate] it was greater than 66 mM; in that of `[Cl][Cd][Cl]` [Cd^2+, Cadmium chloride], 0.25 ± 0.07 mM; in that of `O=[Te](=O)([O-])[O-].[K+].[K+]` [TeO4^2−, potassium tellurate], 0.67 ± 0 mM.
On the same count and under the same terms, in the case of `O=[N+]([O-])[O-].[Ag+]` [Ag^+, silver nitrate] it was 0.30 ± 0 mM; in that of `[Cl][Sn][Cl]` [Sn^2+, stannous chloride], 8.6 ± 0 mM; in that of `O=S(=O)([O-])[O-].[Mn+2]` [Mn^2+, manganous sulfate], 12 ± 5 mM.
The same measure, in the same setting: in the case of `[Cl][Hg][Cl]` [Hg^2+, mercuric chloride] it was 0.020 mM.

The assay is the same for the next values; noted with them: S. aureus ATCC 29213 biofilm; LB+B1; 24 h exposure.
For the molecule `[Na+].[Na+].[O]=[Mo](=[O])([O-])[O-]` [MoO4^2−, sodium molybdate], the MBEC was greater than 102 mM.
Still for that read-out and setting: the result for `O=[Se](O)O` [SeO3^2−, selenous acid] reads 16 ± 0 mM; that for `O=[Te]([O-])[O-].[K+].[K+]` [TeO3^2−, potassium tellurite], 0.73 ± 0 mM; that for Sodium arsenite [AsO2^−], greater than 77 mM.
Same read-out and setting: in the case of Sodium hydrogen arsenate [AsO4^2−] it was greater than 59 mM.
`[Na+].[Na+].[O]=[W](=[O])([O-])[O-]` [WO4^2−, sodium tungstate] registered an MBEC greater than 66 mM.
On the same count and under the same terms, the result for `[Cl][Cd][Cl]` [Cd^2+, Cadmium chloride] reads 15.9 ± 4.6 mM; that for `O=[Te](=O)([O-])[O-].[K+].[K+]` [TeO4^2−, potassium tellurate], 1.3 ± 0.7 mM.
The same measure, in the same setting: the result for `O=[N+]([O-])[O-].[Ag+]` [Ag^+, silver nitrate] reads greater than 9.5 mM.
On the same count and under the same terms, in the case of `[Cl][Sn][Cl]` [Sn^2+, stannous chloride] it was 17.3 ± 0 mM; in that of `O=S(=O)([O-])[O-].[Mn+2]` [Mn^2+, manganous sulfate], greater than 149 mM; in that of `[Cl][Hg][Cl]` [Hg^2+, mercuric chloride], 0.080 ± 0 mM.

The same assay, now with this note: S. aureus ATCC 29213 planktonic; LB+B1; 24 h exposure.
On to `[Na+].[Na+].[O]=[Mo](=[O])([O-])[O-]` [MoO4^2−, sodium molybdate], for which the MBC is greater than 102 mM.
On the same count and under the same terms, the result for `O=[Se](O)O` [SeO3^2−, selenous acid] reads 16 ± 0 mM (≈ 2060 µg/mL); that for `O=[Te]([O-])[O-].[K+].[K+]` [TeO3^2−, potassium tellurite], greater than 0.73 mM; that for Sodium arsenite [AsO2^−], greater than 77 mM.
In turn, Sodium hydrogen arsenate [AsO4^2−] yielded an MBC greater than 59 mM.
For the molecule `[Na+].[Na+].[O]=[W](=[O])([O-])[O-]` [WO4^2−, sodium tungstate], the MBC is given as greater than 66 mM.
Take `[Cl][Cd][Cl]` [Cd^2+, Cadmium chloride]: the MBC worked out at 18.2 ± 0 mM.
The same measure, in the same setting: in the case of `O=[Te](=O)([O-])[O-].[K+].[K+]` [TeO4^2−, potassium tellurate] it was greater than 1.3 mM.
In the case of `O=[N+]([O-])[O-].[Ag+]` [Ag^+, silver nitrate], the MBC was 9.5 ± 0 mM.
On the same count and under the same terms, in the case of `[Cl][Sn][Cl]` [Sn^2+, stannous chloride] it was 17.3 ± 0 mM; in that of `O=S(=O)([O-])[O-].[Mn+2]` [Mn^2+, manganous sulfate], greater than 149 mM.
Consider `[Cl][Hg][Cl]` [Hg^2+, mercuric chloride], for which the MBC turned out to be 0.080 ± 0 mM.
